Test results from patent US5977075A, “N-aroylamino acid amides as endothelin inhibitors” (Novartis AG, priority 1997, dated 1999).

Assays:
[1] = biological target: T1, human ETA (Homo sapiens, UniProt P25101); experiment: Competition binding of [125I] ET-1 to CHO-ETA membranes; conditions: [125I] ET-1, 2 hours at 37° C.
T1 construct: expressed in transfected cells; host or cells: CHO (Chinese hamster ovary) cells, membrane preparation
T1 sequence (P25101 21-427): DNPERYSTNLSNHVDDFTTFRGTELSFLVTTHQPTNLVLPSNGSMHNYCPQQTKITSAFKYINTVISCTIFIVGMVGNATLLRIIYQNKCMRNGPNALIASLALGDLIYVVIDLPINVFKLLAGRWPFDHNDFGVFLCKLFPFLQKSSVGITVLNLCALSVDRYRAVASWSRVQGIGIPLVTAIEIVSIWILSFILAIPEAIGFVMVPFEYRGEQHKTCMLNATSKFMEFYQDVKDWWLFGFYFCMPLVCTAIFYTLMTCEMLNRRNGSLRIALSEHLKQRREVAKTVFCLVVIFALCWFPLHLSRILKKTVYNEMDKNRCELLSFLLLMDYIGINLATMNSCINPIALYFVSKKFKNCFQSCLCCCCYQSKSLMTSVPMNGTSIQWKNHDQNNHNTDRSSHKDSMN
Experimental: (§1) 1. Binding Studies--ETA and ETB ;
(§2) Chinese hamster ovary cells expressing human ETA (CHO-ETA) or ETB (CHO-ETB) receptors are cultured in F12 medium (cibcoBRL, Grand Island, N.Y.) containing 10% fetal bovine serum and 1× antibiotic-antimycotic (GibcoBRL). Cells are harvested, then centrifuged, and finally homogenized in buffer containing 1 mM EDTA and […] Tris, pH 8.0. The cell debris is removed by brief centrifugation, and then the supernatant centrifuged again at 50,000×g for 10 minutes. The resulting pellet is resuspended in Hanks' balanced salt solution at a protein concentration of […] and stored in aliquots at -80° C. Competition binding is carried out by in incubating 0.2-1.0 mg of membrane protein from CHO-ETA or CHO-ETB cells with 12,000 cpm [^125 I] ET-1 (New England Nuclear, Boston, Mass.) with or without the competing ligand for 2 hours at 37° C. in a buffer containing 0.2 mg/ml bovine serum albumin, 0.002% Triton X-100, 0.02% NaN3, and […] Tris, pH 7.0. The reaction is terminated by filtration through a cell harvester (Brandel, Gaitherburg, Md.) using GF/C filters. Triplicate samples are carried out in each experiment, and if appropriate, the full dose-response curve for each competing ligand is performed at least three times. […]

[2] = biological target: T2, human ETB (Homo sapiens, UniProt P24530); experiment: Competition binding of [125I] ET-1 to CHO-ETB membranes; conditions: [125I] ET-1, 2 hours at 37° C.
T2 construct: expressed in transfected cells; host or cells: CHO (Chinese hamster ovary) cells, membrane preparation
T2 sequence (P24530 27-442): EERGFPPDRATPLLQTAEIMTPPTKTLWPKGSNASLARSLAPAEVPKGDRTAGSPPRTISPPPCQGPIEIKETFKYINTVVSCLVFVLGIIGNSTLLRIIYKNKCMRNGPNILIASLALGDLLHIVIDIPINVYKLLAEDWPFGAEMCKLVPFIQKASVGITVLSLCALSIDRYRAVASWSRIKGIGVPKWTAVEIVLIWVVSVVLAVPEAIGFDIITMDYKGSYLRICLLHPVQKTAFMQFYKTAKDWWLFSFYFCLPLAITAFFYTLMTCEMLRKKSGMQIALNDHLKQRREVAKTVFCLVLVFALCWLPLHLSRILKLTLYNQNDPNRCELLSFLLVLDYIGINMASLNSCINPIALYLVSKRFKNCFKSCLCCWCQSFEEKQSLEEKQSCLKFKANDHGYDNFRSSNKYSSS
Experimental: as §1, §2

[3] = biological target: T3, ETB (Canis lupus familiaris, UniProt P56497); experiment: Isolated tissue study, isometric tension, dog saphenous veins; set-up: species or system mongrel dogs; conditions: antagonist added 30 minutes prior to ET-1 or STX6c
T3 construct: from tissue; host or cells: saphenous vein segments from mongrel dogs
T3 sequence (P56497 27-442): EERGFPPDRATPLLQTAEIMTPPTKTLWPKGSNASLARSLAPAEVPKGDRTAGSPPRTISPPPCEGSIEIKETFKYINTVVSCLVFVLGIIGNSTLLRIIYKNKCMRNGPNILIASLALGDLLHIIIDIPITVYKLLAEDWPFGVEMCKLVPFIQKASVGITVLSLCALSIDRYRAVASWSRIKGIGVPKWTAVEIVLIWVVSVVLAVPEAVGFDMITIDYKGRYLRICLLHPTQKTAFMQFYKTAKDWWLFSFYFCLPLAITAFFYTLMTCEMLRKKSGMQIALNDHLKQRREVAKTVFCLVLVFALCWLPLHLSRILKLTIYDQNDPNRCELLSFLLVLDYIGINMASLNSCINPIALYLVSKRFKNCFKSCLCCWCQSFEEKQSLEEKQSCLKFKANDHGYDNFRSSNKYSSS
Experimental: (§3) 2. Isolated Tissue Studies
(§4) Studies measuring isometric tension are carried out according to the procedure of Shetty et al. (Biochem. Biophys. Res. Comm. 1993; 191:459-464). Saphenous veins (for antagonism of ETB) are obtained from mongrel dogs which are anesthetized with pentobarbital. Thoracic aortas are obtained from Sprague-Dawley male rats (for antagonism of ETA). Coronary arteries are obtained from porcine hearts. Tissue segments (4-5 mm) from each vascular preparation are equilibrated for 90 minutes during which time the tissues are adjusted to a preload tension of 2 gm, except for the porcine coronary which is adjusted to 4 gm preload. Concentration-response curves are generated by the cumulative addition of the peptides. Antagonists are added 30 minutes prior to the addition of ET-1 or STX6c. Contractions are expressed as a percentage of the response to […] KCl. Relaxation is quantitated by expressing the tension after relaxation as a percent of the tension induced by 1 mM phenylephrine.

[4] = biological target: T4, ETA (Rattus norvegicus, UniProt P26684); experiment: Isolated tissue study, isometric tension, thoracic aorta; set-up: species or system Sprague-Dawley male rats; conditions: antagonist added 30 minutes prior to ET-1 or STX6c
T4 construct: from tissue; host or cells: thoracic aorta segments from Sprague-Dawley male rats
T4 sequence (P26684 21-426): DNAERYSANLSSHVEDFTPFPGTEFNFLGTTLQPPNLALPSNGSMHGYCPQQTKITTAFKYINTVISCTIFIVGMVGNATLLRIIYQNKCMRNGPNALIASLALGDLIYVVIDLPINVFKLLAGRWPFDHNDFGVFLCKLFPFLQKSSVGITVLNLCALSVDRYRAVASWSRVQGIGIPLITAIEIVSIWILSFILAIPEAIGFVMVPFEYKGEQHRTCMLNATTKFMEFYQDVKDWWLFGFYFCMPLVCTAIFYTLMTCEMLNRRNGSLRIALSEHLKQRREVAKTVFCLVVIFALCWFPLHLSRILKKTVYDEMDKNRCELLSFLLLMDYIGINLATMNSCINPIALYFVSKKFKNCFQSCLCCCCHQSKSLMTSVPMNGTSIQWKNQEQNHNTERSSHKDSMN
Experimental: as §3, §4

Question: What does the source list for CCCCS(=O)(=O)NC(=O)C1(NC(=O)[C@@H](Cc2ccc(-n3cccc3)cc2)N(C)C(=O)c2cc(C)cc(C)c2)CC1 [example 1, R-N-[N-3,5-dimethylbenzoyl-N-methyl-3-[4-(1-pyrrolyl)phenyl]alanyl]-1-aminocyclo propane-1-N-(n-butanesulfonyl)carboxamide]?
Answer: IC50 [1]: < 1 nM; IC50 [2]: < 1 nM; ET-induced contractile response in dog saphenous veins [3]: inhibit ET-induced contractile response; ET-induced contractile response in thoracic aorta [4]: inhibit ET-induced contractile response
